The subject of the assay is Human SW620 colon tumor cells. The assay is described as follows: alamarBlue cell viability (cytotoxicity) assay, SW620. The conditions noted are these: SW-620, 48 h, SW620 cell line, two days incubation, alamarBlue fluorescence. It is filed as cell-based. Here is the method: Human SW620 colon tumor cells are cultivated using 10% FCS/DMEM (Invitrogen) medium. The cells are plated into 384 well plates at a density of 8000 cells per well in a volume of 50 μL. The cells are placed in a 37° C. incubator and allowed to adhere overnight. Test compounds are added to the cells in a volume of 500 nL (final DMSO concentration in assay is 1%). Serial dilutions of the test compound are added (the top concentration of compound is 10 micromolar (final assay concentration) followed by 11 two fold dilutions. The cells are incubated for a further two days. A solution (50 μL) comprised of 20% alamarBlue™ (Biosource International, Inc.) and 80% assay medium is added to each well and the plates are incubated at 37° C. for a further 4 hours. The plates are read by fluorescence (530 nm excitation, 580 nm emission) on an Acquest reader (LJL Biosystems). The IC50 is defined as the concentration of a test compound at the end of the incubation period, which leads to 50% of cell viability per well compared with the control (concentration at semi-maximum inhibition of cell growth).

As a reminder, the IC50 is the point on the concentration scale where inhibition reaches its midpoint.

The structures appear in SMILES notation.

Molecule `O=C(Nc1ccc(N2CCOCC2)cc1)c1ccc(Nc2ccc(OC(F)(F)F)cc2)cc1` [Example 1, N-(4-Morpholin-4-yl-phenyl)-4-(4-trifluoromethoxy-phenylamino)-benzamide] registered an IC50 of 26 nM. That is a double-digit nanomolar value.

The values above are taken from patent publication US7125997B2, “Differential tumor cytotoxicity compounds and compositions” (IRM LLC, priority 2002, dated 2006).
